Data published in the kinase profiling compilation of Christmann-Franck et al. (2016).

Experiments:
Experiment in all cases: radiometric filter-binding kinase assay, Kinase HotSpot
Details in all cases: compound 0.5 µM; ATP 10 µM
DAPK1 (human) = DAPK1 (human) (UniProt P53355)
DYRK1A (human) = DYRK1A (human) (UniProt Q13627)
MET (human) = MET (human) (UniProt P08581)
SGK3 (human) = SGK3 (human) (UniProt Q96BR1)
PTK2 (human) = PTK2 (human) (UniProt Q05397)
FGR (human) = FGR (human) (UniProt P09769)
PRKG2 (human) = PRKG2 (human) (UniProt Q13237)
CAMKK1 (human) = CAMKK1 (human) (UniProt Q8N5S9)
PRKCD (human) = PRKCD (human) (UniProt Q05655)
CDC42BPB (human) = CDC42BPB (human) (UniProt Q9Y5S2)
[1] = molecular target: JAK1 JH1 catalytic (human) (UniProt P23458)
CDK5 CDK5R1 p25 (human) = CDK5 CDK5R1 p25 (human) (UniProt Q00535+Q15078)
MAP3K2 (human) = MAP3K2 (human) (UniProt Q9Y2U5)
CSNK1A1 (human) = CSNK1A1 (human) (UniProt P48729)
CSNK1D (human) = CSNK1D (human) (UniProt P48730)
MLTK (human) = MLTK (human) (UniProt Q9NYL2)
HIPK2 (human) = HIPK2 (human) (UniProt Q9H2X6)
AURKA (human) = AURKA (human) (UniProt O14965)
RAF1 (human) = RAF1 (human) (UniProt P04049)
INSRR (human) = INSRR (human) (UniProt P14616)
MYLK2 (human) = MYLK2 (human) (UniProt Q9H1R3)
EPHB2 (human) = EPHB2 (human) (UniProt P29323)
GSK3A (human) = GSK3A (human) (UniProt P49840)
YES1 (human) = YES1 (human) (UniProt P07947)
OXSR1 (human) = OXSR1 (human) (UniProt O95747)
STK4 (human) = STK4 (human) (UniProt Q13043)
JAK2 JH1 JH2 (human) = JAK2 JH1 JH2 (human) (UniProt O60674)
RPS6KA2 KD1 KD2 (human) = RPS6KA2 KD1 KD2 (human) (UniProt Q15349)
PIM2 (human) = PIM2 (human) (UniProt Q9P1W9)
MAPK11 (human) = MAPK11 (human) (UniProt Q15759)
DMPK (human) = DMPK (human) (UniProt Q09013)
AURKB (human) = AURKB (human) (UniProt Q96GD4)
MAP2K2 (human) = MAP2K2 (human) (UniProt P36507)
TGFBR1 (human) = TGFBR1 (human) (UniProt P36897)
AKT3 (human) = AKT3 (human) (UniProt Q9Y243)
MAP3K11 (human) = MAP3K11 (human) (UniProt Q16584)
SRC (human) = SRC (human) (UniProt P12931)
FES (human) = FES (human) (UniProt P07332)
BLK (human) = BLK (human) (UniProt P51451)
FLT1 (human) = FLT1 (human) (UniProt P17948)
CSNK1E (human) = CSNK1E (human) (UniProt P49674)
PDGFRB (human) = PDGFRB (human) (UniProt P09619)

DMPK (human), sequence (Q09013 whole entry, looked up): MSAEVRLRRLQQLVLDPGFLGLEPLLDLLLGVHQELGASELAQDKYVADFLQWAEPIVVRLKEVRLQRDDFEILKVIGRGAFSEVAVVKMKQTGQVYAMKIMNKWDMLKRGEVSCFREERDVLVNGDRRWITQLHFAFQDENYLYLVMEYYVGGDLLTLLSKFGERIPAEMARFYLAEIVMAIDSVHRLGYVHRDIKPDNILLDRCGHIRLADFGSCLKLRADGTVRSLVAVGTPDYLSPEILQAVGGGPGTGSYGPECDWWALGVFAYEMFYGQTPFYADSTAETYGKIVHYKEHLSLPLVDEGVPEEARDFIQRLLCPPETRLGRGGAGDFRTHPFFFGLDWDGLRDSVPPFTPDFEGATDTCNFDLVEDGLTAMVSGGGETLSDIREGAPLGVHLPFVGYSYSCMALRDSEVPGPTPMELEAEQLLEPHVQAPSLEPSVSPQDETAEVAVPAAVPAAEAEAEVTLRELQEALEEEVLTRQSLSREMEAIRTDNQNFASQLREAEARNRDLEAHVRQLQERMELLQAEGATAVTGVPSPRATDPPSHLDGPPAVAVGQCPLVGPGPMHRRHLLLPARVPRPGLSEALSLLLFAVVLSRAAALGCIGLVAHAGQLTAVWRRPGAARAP
SRC (human), sequence (P12931 whole entry, looked up): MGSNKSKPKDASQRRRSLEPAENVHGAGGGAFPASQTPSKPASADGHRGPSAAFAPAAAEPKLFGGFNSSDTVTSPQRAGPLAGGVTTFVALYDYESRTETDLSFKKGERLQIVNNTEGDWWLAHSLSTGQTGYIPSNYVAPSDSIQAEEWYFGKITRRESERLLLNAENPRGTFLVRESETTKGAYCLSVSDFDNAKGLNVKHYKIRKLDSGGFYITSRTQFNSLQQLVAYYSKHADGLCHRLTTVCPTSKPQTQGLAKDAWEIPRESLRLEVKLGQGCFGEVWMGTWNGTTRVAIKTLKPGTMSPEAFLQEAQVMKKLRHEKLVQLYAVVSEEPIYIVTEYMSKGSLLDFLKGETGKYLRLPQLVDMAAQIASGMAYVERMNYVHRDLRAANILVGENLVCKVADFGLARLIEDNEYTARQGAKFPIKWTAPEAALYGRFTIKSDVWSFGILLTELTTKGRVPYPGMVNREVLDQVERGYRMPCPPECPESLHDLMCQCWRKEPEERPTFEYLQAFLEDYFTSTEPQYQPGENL
INSRR (human), sequence (P14616 whole entry, looked up): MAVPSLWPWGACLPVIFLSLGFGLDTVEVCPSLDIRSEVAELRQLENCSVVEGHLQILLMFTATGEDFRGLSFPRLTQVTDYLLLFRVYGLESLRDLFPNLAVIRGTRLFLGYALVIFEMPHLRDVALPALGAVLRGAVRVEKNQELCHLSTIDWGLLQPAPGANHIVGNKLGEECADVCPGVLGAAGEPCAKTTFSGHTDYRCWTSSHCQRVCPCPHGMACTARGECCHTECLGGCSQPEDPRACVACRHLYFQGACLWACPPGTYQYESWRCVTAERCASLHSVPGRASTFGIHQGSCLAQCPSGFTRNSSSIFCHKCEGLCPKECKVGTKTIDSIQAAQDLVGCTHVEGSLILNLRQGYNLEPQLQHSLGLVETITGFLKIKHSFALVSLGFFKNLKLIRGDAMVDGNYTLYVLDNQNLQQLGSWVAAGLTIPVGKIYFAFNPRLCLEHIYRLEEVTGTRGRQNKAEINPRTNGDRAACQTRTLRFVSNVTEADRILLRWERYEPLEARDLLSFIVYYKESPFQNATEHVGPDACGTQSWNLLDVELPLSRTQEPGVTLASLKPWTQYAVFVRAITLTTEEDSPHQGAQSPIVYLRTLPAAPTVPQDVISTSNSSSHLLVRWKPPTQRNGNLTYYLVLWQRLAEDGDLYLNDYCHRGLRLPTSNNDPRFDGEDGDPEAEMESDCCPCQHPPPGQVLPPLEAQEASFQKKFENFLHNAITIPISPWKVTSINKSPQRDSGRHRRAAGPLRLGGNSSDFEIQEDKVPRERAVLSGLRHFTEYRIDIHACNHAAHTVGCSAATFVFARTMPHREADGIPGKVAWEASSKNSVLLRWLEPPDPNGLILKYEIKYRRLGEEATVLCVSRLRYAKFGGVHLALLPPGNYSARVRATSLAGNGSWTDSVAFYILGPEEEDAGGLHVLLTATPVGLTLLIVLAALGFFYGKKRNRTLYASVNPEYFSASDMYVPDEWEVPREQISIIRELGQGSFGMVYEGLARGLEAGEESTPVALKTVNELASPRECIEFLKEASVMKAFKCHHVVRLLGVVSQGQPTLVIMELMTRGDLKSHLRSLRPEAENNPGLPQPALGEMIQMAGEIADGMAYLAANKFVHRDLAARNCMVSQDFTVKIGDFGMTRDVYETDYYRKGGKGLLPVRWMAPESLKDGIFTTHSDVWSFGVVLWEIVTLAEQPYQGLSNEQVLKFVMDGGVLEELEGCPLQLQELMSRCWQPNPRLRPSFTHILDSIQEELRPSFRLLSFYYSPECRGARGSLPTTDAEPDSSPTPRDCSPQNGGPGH
BLK (human), sequence (P51451 whole entry, looked up): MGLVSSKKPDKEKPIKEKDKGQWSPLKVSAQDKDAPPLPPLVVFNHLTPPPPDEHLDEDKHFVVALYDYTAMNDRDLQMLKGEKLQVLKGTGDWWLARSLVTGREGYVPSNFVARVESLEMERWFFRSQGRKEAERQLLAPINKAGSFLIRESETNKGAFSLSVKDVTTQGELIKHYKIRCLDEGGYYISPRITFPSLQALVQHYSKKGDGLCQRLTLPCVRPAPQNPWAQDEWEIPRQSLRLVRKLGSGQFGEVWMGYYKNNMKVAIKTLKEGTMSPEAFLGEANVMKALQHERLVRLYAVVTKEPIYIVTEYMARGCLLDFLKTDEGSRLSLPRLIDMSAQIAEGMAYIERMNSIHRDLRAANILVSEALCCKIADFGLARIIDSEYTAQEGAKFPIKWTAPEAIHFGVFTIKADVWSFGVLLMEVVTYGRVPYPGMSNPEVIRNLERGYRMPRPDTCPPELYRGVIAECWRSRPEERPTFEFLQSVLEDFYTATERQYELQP
STK4 (human), sequence (Q13043 whole entry, looked up): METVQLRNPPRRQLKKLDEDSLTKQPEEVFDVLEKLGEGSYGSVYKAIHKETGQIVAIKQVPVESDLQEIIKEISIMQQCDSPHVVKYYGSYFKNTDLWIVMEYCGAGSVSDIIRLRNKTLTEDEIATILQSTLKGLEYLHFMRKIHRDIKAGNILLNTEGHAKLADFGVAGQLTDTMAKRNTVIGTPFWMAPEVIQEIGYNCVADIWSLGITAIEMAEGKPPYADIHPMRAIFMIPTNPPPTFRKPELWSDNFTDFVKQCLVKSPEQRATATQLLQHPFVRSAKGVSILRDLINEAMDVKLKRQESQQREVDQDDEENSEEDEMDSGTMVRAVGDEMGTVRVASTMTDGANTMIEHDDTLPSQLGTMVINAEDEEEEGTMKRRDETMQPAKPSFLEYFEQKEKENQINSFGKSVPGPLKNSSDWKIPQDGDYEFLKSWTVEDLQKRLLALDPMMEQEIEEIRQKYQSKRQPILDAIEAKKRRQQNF
FES (human), sequence (P07332 whole entry, looked up): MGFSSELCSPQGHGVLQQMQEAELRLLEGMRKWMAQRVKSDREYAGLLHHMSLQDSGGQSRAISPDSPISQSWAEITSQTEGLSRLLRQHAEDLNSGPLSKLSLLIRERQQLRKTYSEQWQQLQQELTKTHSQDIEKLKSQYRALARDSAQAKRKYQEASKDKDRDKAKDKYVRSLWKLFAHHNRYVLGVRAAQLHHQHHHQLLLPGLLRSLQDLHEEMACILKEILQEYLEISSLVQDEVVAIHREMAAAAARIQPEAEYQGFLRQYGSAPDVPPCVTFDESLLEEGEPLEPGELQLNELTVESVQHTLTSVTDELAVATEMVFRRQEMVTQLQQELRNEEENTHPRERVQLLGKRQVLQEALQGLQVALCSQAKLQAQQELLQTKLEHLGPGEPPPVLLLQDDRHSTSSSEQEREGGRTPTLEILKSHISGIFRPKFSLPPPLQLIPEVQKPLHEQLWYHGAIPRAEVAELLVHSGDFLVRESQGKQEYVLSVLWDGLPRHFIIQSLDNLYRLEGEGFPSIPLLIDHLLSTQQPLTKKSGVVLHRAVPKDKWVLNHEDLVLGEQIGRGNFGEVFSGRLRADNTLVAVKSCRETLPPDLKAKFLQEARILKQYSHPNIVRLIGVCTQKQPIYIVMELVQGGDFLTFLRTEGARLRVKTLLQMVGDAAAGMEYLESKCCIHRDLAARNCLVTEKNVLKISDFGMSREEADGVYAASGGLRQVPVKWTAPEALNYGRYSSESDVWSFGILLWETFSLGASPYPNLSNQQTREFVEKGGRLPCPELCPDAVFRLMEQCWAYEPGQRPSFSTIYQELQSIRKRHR
OXSR1 (human), sequence (O95747 whole entry, looked up): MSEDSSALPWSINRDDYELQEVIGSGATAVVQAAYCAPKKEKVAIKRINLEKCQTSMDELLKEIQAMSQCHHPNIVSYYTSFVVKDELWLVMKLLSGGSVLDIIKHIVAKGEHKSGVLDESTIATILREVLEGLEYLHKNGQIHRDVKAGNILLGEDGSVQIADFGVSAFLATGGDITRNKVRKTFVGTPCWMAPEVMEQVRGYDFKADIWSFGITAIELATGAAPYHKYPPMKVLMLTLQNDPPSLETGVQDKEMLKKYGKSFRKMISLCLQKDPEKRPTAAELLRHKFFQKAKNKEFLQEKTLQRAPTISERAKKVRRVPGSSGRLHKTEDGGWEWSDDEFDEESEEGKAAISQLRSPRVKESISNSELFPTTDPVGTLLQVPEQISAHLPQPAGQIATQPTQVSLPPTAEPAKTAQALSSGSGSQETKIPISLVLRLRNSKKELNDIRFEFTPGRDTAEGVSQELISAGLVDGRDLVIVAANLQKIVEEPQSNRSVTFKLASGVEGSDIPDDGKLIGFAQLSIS

COc1ccc(S(=O)(=O)N(CCO)c2ccccc2CN(C)C/C=C/c2ccc(Cl)cc2)cc1
residual activity (DAPK1 (human)): 120% | residual activity (DYRK1A (human)): 102% | residual activity (MET (human)): 98.2% | residual activity (SGK3 (human)): 106% | residual activity (PTK2 (human)): 104% | residual activity (FGR (human)): 99.8% | residual activity (PRKG2 (human)): 104% | residual activity (CAMKK1 (human)): 106% | residual activity (PRKCD (human)): 94.3% | residual activity (CDC42BPB (human)): 101% | residual activity [1]: 111% | residual activity (CDK5 CDK5R1 p25 (human)): 97.7% | residual activity (MAP3K2 (human)): 95.3% | residual activity (CSNK1A1 (human)): 99.3% | residual activity (CSNK1D (human)): 102% | residual activity (MLTK (human)): 97% | residual activity (HIPK2 (human)): 107% | residual activity (AURKA (human)): 97.5% | residual activity (RAF1 (human)): 93.7% | residual activity (INSRR (human)): 97% | residual activity (MYLK2 (human)): 97.8% | residual activity (EPHB2 (human)): 97.7% | residual activity (GSK3A (human)): 99.9% | residual activity (YES1 (human)): 103% | residual activity (OXSR1 (human)): 106% | residual activity (STK4 (human)): 94.2% | residual activity (JAK2 JH1 JH2 (human)): 98.4% | residual activity (RPS6KA2 KD1 KD2 (human)): 99.2% | residual activity (PIM2 (human)): 99.7% | residual activity (MAPK11 (human)): 103% | residual activity (DMPK (human)): 105% | residual activity (AURKB (human)): 106% | residual activity (MAP2K2 (human)): 100% | residual activity (TGFBR1 (human)): 101% | residual activity (AKT3 (human)): 105% | residual activity (MAP3K11 (human)): 99.3% | residual activity (SRC (human)): 92.7% | residual activity (FES (human)): 96.3% | residual activity (BLK (human)): 103% | residual activity (FLT1 (human)): 94.7% | residual activity (CSNK1E (human)): 105% | residual activity (PDGFRB (human)): 104%

Cc1nc(-c2ccccc2)c(-c2ccncc2)o1
residual activity (DAPK1 (human)): 124% | residual activity (DYRK1A (human)): 98.4% | residual activity (MET (human)): 102% | residual activity (SGK3 (human)): 96.4% | residual activity (PTK2 (human)): 106% | residual activity (FGR (human)): 89.7% | residual activity (PRKG2 (human)): 85% | residual activity (CAMKK1 (human)): 123% | residual activity (PRKCD (human)): 96.2% | residual activity (CDC42BPB (human)): 101% | residual activity [1]: 103% | residual activity (CDK5 CDK5R1 p25 (human)): 97% | residual activity (MAP3K2 (human)): 102% | residual activity (CSNK1A1 (human)): 86.4% | residual activity (CSNK1D (human)): 44% | residual activity (MLTK (human)): 89% | residual activity (HIPK2 (human)): 95.5% | residual activity (AURKA (human)): 91.2% | residual activity (RAF1 (human)): 92.6% | residual activity (INSRR (human)): 101% | residual activity (MYLK2 (human)): 100% | residual activity (EPHB2 (human)): 99.8% | residual activity (GSK3A (human)): 112% | residual activity (YES1 (human)): 101% | residual activity (OXSR1 (human)): 102% | residual activity (STK4 (human)): 104% | residual activity (JAK2 JH1 JH2 (human)): 98.4% | residual activity (RPS6KA2 KD1 KD2 (human)): 93% | residual activity (PIM2 (human)): 110% | residual activity (MAPK11 (human)): 101% | residual activity (DMPK (human)): 103% | residual activity (AURKB (human)): 97.3% | residual activity (MAP2K2 (human)): 106% | residual activity (TGFBR1 (human)): 102% | residual activity (AKT3 (human)): 106% | residual activity (MAP3K11 (human)): 98.7% | residual activity (SRC (human)): 96.2% | residual activity (FES (human)): 101% | residual activity (BLK (human)): 95.4% | residual activity (FLT1 (human)): 79.4% | residual activity (CSNK1E (human)): 69.9% | residual activity (PDGFRB (human)): 109%

c1ccc2c(-c3ccncc3)c[nH]c2c1
residual activity (DAPK1 (human)): 97.7% | residual activity (DYRK1A (human)): 77.6% | residual activity (MET (human)): 91.4% | residual activity (SGK3 (human)): 92.8% | residual activity (PTK2 (human)): 97.7% | residual activity (FGR (human)): 94.5% | residual activity (PRKG2 (human)): 38.3% | residual activity (CAMKK1 (human)): 122% | residual activity (PRKCD (human)): 83.2% | residual activity (CDC42BPB (human)): 104% | residual activity [1]: 109% | residual activity (CDK5 CDK5R1 p25 (human)): 92% | residual activity (MAP3K2 (human)): 94.9% | residual activity (CSNK1A1 (human)): 100% | residual activity (CSNK1D (human)): 105% | residual activity (MLTK (human)): 102% | residual activity (HIPK2 (human)): 94.1% | residual activity (AURKA (human)): 78% | residual activity (RAF1 (human)): 93.2% | residual activity (INSRR (human)): 101% | residual activity (MYLK2 (human)): 96.2% | residual activity (EPHB2 (human)): 114% | residual activity (GSK3A (human)): 103% | residual activity (YES1 (human)): 97.1% | residual activity (OXSR1 (human)): 97.2% | residual activity (STK4 (human)): 103% | residual activity (JAK2 JH1 JH2 (human)): 93.8% | residual activity (RPS6KA2 KD1 KD2 (human)): 89% | residual activity (PIM2 (human)): 105% | residual activity (MAPK11 (human)): 112% | residual activity (DMPK (human)): 109% | residual activity (AURKB (human)): 95.9% | residual activity (MAP2K2 (human)): 103% | residual activity (TGFBR1 (human)): 103% | residual activity (AKT3 (human)): 101% | residual activity (MAP3K11 (human)): 95.2% | residual activity (SRC (human)): 100% | residual activity (FES (human)): 105% | residual activity (BLK (human)): 99.6% | residual activity (FLT1 (human)): 97.9% | residual activity (CSNK1E (human)): 100% | residual activity (PDGFRB (human)): 105%
